Laboratory results published in patent publication US5182283A, “Heterocyclic compounds their preparation and use” (Novo Nordisk A/S, priority 1990, dated 1993).
Counter-ions that a name gives are not always drawn. Like-named read-outs stand apart in the source and are kept apart here.

Columns and labels:
[1] = target: muscarinic acetylcholine receptors; test: inhibition of specific binding of ^3 H-Oxotremorine-M (^3 H-Oxo) in rat cortex; design: species or system male Wistar rats; details: read-out: Inhibition in vitro OXO BINDING (IC50, concentration which inhibits the specific binding of ^3 H-Oxo by 50%), ^3 H-Oxotremorine 1.0 nM, 30 min at 25° C., pH 7.4, 25-75% inhibition needed for calculation
Experimental: The pharmacological properties of the compounds of the invention can be illustrated by determining their capability to inhibit the specific binding of ^3 H-Oxotremorine-M (^3 H-Oxo).
^3 H-Oxo labels muscarinic receptor in the CNS (with a preference for agonist domaines of the receptors). Three different sites are labelled by ^3 H-Oxo. […] Using the present experimental conditions only the high and medium affinity sites are determined.
The inhibitory effects of compounds on ^3 H-Oxo binding reflects the affinity for muscarinic acetylcholine receptors.
All preparations are performed at 0°-4° C. unless otherwise indicated. Fresh cortex (0.1-1 g) from male Wistar rats (150-250 g) is homogenized for 5-10 s in 10 ml 20 mM Hepes pH: 7.4, with an Ultra-Turrax homogenizer. The homogenizer is rinsed with 10 ml of buffer and the combined suspension centrifuged for 15 min at 40,000×g. The pellet is washed three times with buffer. In each step the pellet is homogenized as before in 2×10 ml of buffer and centrifuged for 10 min at 40,000×g.
The final pellet is homogenized in 20 mM Hepes pH: 7.4 (100 ml per g of original tissue) and used for binding assay. Aliquots of 0.5 ml is added 25 μl of test solution and 25 μl of ^3 H-Oxotremorine (1.0 nM, final concentration) mixed and incubated for 30 min at 25° C. […] After incubation samples are added 5 ml of ice-cold buffer and poured directly onto Whatman GF/C glass fiber filters under suction and immediately washed 2 times with 5 ml of ice-cold buffer. The amount of radioactivity on the filters are determined by conventional liquid scintillation counting. Specific binding is total binding minus non specific binding.
Test substances are dissolved in 10 ml water (if necessary heated on a steambath for less than 5 minutes) at a concentration of 2.2 mg/ml. 25-75% inhibition of specific binding must be obtained before calculation of IC50.
[formula] where Co is specific binding in control assays and Cx is the specific binding in the test assay. (The calculations assume normal mass-action kinetics).

[2] = tested on: central and peripheral muscarinic effects; details: in vivo; cited from earlier work
[3] = in vivo; cited from earlier work
[4] = in vivo; cited from earlier work; remark: listed apart in the source
[5] = target: muscarinic receptor in the CNS; details: read-out: affinity of ^3 H-Oxo site, cited from earlier work

## CCCCCCOc1nccnc1[C@H]1CN2CC[C@@H]1C2 (relative stereo) [Compound 27, Endo-3-(3-hexyloxypyrazinyl)-1-azabicyclo[2.2.2]heptane hydrochlorid hemihydrate]
[1]
  IC50: 46 nM

## CCCCCCOc1nccnc1[C@@H]1CN2CC[C@@H]1C2 (relative stereo) [Compound 28, Exo-3-(3-hexyloxypyrazinyl)-1-azabicyclo[2.2.1]heptane hydrochloride]
[1]
  IC50: 5.6 nM

## COC(=O)C1=CCCN(C)C1 [Arecoline, methyl 1-methyl-1,2,5,6-tetrahydropyridine-3-carboxylate]
[2]
  separation between central and peripheral muscarinic effects: small separation
[3]
  toxicity: rather toxic
[4]
  biological half life: very short

## FC(F)(F)C(F)(F)C(F)(F)C(F)(F)CCOc1nccnc1C1=CN2CCC1CC2 [Compound 24, 3-(3-(3,3,4,4,5,5,6,6,6)nonafluorohexyloxypyrazinyl)-1-azabicyclo[2.2.2]oct-2-ene hydrochloride]
[1]
  IC50: 490 nM

## CCCCCOc1nccnc1C1CN2CCC1CC2 (stereo not shown) [Compound 25, 3-(3-Pentyloxypyrazinl)-1-azabicyclo[2.2.2]octane hydrochloride]
[1]
  IC50: 6 nM

## C[N+](C)(C)CC#CCN1CCCC1=O [^3 H-Oxo]
[5]; first of three sites (high affinity)
  Kd: 1.8 nM
[5]; second of three sites (medium affinity)
  Kd: 20 nM
[5]; third of three sites, not determined under the present conditions
  Kd: 3000 nM
